These results are taken from US6262095A, “Use of tricyclic derivatives of 1,4-dihydro-1,4-dioxo-1H-naphthalene, novel compounds obtained and their application in theraphy” (Laboratoire Innothera, priority 1995, dated 2001).

Assay [1] relates to hyperpermeability induced by zymosan in rats. The experiment in a line: Inflammatory hyperpermeability induced by zymosan in rats. The note with it: rat, oral, 5 mg/kg. It counts as in vivo, rat (Wistar). Here is the method: The vascular permeability is studied in vivo by measuring the extravasation of albumin, the quantity of which is determined using an albumin-binding dye (Evans blue).
The hyperpermeability is induced by the intradermal injection of a solution of histamine, bradykinin, or zymosan.
The abdominal walls of the rats (Wistar, 200-230 g) are shorn 1 h before the start of the experiment. The product to be tested is injected by the intraperitoneal route or orally 1-4 h before the sacrifice. The rats are anesthetized with a halothane mixture. They then receive an intradermal injection in their abdomen of 0.10 or 0.15 mL (or for histamine 6.7 or […]) of inflammatory agent and an intravenous injection of 1 mL of 0.5% Evans blue solution in the vein of the penis. These injections are carried out 30 min before the sacrificing.
30 min after these two injections, the rats are sacrificed by cervical dislocation.
At the site of the injection of the inflammatory agent, the skin is cut and placed into glass tubes with a ground[-glass] neck containing 3 mL of fuming hydrochloric acid. […] After allowing the preparation to stand for 30 min, 7 mL of dichloromethane are added. The tubes are periodically agitated for 1 h. The aqueous phase is eliminated by aspiration, and the organic "dichloromethane" phase is filtered. The optical densities are quantified by absorption spectrophotometry at a wavelength of 620 nm, against a blank [control] containing only dichloromethane. The averages of the optical densities of the different lots of treated or control animals are calculated, then a percentage of variation of the values corresponding to the treated [experimental] animals compared to those of the control animals is calculated.

In assay [2] the test system is pleurisy by carrageenin in rats. As to the kind of experiment: Pleurisy induced by carrageenin in rats. The settings on record: rat, oral 3×5 mg. It counts as in vivo. Here is the method: The anti-inflammatory activity of the compounds is also studied by measuring the inhibition of the edema and the leukocyte migration after the induction of pleurisy in rats by the injection of carrageenin into the pleural cavity (Almeida et al., J. Pharmacol. Exp. Therap., 1980, Vol. 214: p. 74). The rats are treated orally using the compounds 2 h before the injection of carrageenin, and 2 and 4 h after this injection. After a predetermined time (6 h) following the induction of pleurisy, the rats are sacrificed; the pleural liquid is recovered by aspiration, and its volume is measured. The leukocytic cells are counted using the "cell counter" technique. The results are expressed as the number of leukocytes in the exudate expressed with respect to 100 g of animal weight and compared with those of the control lot.

In the case of `O=C1c2ccccc2C(=O)c2sc(-c3ccco3)nc21` [Example n, 4,9-Dihydro-4,9-dioxo-2-(2-furyl)-naphtho[2,3-d]thiazole], the “Zymosan-induced hyperpermeability, effect after 2 h” value in assay [1] (2 h) is recorded as 0 % of the control. Besides, the “Zymosan-induced hyperpermeability, effect after 4 h” value in assay [1] (4 h) is on record as -21 % of the control. Besides, in assay [2], the “volume of pulmonary exudate” value was “significantly decreases the volume of pulmonary exudate”.
